Assay results: ChEMBL document CHEMBL1201862, “PubChem BioAssay data set” (2004)
Activity calls are given as the source filed them.

Assays:
[1] = NIH-3T3 fibroblast cytotoxicity, dose response, cytotoxicity control, cell-based, fluorescence, Alamar Blue, secondary assay (AID 2327); format: functional;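 further: NIH-3T3 mouse fibroblasts cultured with fluconazole at 8 µg/mL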
[2] = molecular target: T1, Aminopeptidase N (Plasmodium falciparum FcB1/Columbia, UniProt O96935); test: malaria alanyl aminopeptidase activity blockers – biochemical, fluorogenic H-Leu-NHMec substrate, 1536-well (AID 1445); parameters: species or system Plasmodium falciparum 3D7, 3D7
T1 sequence (O96935 whole entry): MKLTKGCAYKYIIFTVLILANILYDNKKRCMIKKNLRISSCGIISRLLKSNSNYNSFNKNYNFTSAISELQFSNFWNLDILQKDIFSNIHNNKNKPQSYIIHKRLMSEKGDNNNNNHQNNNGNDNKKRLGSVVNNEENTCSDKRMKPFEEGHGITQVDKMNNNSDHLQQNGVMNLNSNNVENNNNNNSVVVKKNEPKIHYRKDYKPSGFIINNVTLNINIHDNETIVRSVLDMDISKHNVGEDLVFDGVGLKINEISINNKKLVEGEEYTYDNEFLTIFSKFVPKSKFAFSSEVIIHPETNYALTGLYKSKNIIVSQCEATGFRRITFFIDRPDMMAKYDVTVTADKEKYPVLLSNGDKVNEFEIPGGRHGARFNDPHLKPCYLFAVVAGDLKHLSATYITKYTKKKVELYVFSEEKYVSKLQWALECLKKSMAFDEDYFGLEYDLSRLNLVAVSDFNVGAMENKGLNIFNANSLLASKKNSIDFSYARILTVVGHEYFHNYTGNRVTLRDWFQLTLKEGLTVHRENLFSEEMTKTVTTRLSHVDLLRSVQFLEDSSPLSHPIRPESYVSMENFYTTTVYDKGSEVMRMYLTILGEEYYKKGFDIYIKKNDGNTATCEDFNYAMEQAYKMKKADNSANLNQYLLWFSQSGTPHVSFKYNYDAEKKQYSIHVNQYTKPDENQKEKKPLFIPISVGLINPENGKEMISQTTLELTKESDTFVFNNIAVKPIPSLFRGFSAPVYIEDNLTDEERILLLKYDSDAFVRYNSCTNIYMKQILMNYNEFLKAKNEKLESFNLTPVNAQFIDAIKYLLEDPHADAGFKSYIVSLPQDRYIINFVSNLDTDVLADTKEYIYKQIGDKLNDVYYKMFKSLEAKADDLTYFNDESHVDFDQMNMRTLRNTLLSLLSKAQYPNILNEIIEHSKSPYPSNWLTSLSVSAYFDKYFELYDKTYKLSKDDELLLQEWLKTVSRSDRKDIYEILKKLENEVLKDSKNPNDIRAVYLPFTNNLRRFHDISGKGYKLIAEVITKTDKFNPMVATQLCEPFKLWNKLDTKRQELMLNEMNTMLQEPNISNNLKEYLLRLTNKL

[3] = molecular target: T2, Bcl-2-like protein 10 (Homo sapiens, UniProt Q9HD36); test: Bcl-B/TR3 peptide binding disruption – biochemical, fluorescence polarization, FITC-TR3 peptide, selectivity assay for Bfl-1 inhibitor project, primary screen (AID 748);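 further: fluorescence polarization from a fluorescein-labelled TR3 peptide binding purified Bcl-B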
T2 sequence (Q9HD36 whole entry): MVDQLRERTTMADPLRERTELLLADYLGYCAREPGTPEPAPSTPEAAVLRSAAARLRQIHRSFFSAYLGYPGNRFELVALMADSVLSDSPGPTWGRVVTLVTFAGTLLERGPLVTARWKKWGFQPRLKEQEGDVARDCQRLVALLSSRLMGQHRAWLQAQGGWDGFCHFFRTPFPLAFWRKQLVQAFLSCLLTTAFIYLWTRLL

[4] = fluconazole-exposed Candida albicans growth modulators – fluorescence, retest, confirmation (AID 2467); format: functional, cell-based
[5] = molecular target: Intestinal-type alkaline phosphatase (Homo sapiens, UniProt P09923); test: activation of human intestinal alkaline phosphatase – biochemical, dose response (AID 488873); format: functional
[6] = molecular target: Alkaline phosphatase, placental type (Homo sapiens, UniProt P05187); test: human placental alkaline phosphatase inhibition – biochemical, luminescence, confirmation (AID 1512); format: functional
[7] = molecular target: T3, Alkaline phosphatase, tissue-nonspecific isozyme (Homo sapiens, UniProt P05186); test: potency against alkaline phosphatase TNAP – biochemical, luminescent, dose response, SAR follow-up (AID 1056)
T3 sequence (P05186 whole entry): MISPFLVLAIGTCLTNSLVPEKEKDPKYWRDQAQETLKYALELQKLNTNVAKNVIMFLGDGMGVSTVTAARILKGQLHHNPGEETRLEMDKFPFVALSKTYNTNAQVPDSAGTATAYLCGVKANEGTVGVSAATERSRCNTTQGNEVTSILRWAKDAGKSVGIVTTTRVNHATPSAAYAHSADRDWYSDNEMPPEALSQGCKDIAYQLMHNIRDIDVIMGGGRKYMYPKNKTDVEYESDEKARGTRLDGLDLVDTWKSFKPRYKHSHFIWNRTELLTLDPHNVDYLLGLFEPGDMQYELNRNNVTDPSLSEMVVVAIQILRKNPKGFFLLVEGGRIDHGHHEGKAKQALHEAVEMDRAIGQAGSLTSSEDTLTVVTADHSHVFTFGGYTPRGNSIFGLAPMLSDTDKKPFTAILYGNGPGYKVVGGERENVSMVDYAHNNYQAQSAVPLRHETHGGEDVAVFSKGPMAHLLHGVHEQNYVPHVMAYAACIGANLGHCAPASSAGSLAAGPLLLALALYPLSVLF

[8] = molecular target: Intestinal-type alkaline phosphatase (Mus musculus, UniProt P24822); test: mouse intestinal alkaline phosphatase activators, dose response, biochemical, luminescence, uHTS hits (AID 488783); format: functional
[9] = molecular target: T3, Alkaline phosphatase, tissue-nonspecific isozyme; test: activation of tissue-nonspecific alkaline phosphatase – biochemical, TNAP isozyme, mouse IAP uHTS hits, selectivity assay for mouse IAP activator project, dose response (AID 488880); format: functional
[10] = molecular target: T4, Rac GTPase-activating protein 1 (Homo sapiens, UniProt Q9H0H5); test: blockers of MgcRacGAP-driven Rac1 GTP hydrolysis – biochemical, ADP Hunter fluorescence, primary and confirmatory, confirmation (AID 624330); format: functional
T4 sequence (Q9H0H5 whole entry): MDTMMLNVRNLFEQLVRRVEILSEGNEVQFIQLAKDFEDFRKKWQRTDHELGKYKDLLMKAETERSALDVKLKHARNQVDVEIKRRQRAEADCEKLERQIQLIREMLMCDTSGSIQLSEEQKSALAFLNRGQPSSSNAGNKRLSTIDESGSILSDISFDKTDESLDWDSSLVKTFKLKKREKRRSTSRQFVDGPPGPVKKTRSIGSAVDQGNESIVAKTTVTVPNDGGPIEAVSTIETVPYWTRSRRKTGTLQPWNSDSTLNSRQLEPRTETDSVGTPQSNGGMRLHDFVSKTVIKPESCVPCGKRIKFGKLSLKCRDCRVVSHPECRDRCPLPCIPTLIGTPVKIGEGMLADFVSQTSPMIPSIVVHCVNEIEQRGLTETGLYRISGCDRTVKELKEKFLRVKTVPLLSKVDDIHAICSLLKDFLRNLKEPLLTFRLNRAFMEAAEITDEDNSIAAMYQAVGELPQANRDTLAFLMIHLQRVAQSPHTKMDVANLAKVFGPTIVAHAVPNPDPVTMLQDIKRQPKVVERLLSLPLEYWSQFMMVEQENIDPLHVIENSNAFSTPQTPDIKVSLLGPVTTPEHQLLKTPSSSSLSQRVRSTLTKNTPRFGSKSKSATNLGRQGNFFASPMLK

[11] = molecular target: T5, Kappa-type opioid receptor (Homo sapiens, UniProt P41145); test: kappa opioid receptor activation by imaging – image-based, set 3, SAR follow-up (AID 488833); format: functional
[12] = molecular target: Mu-type opioid receptor (Homo sapiens, UniProt P35372); test: SAR Analysis of Agonists of the MOR Receptor using an Image-Based Assay - Set 3. [Related pubchem assays (depositor defined):AID1777, AID1785, AID1786, AID1966, AID2133, AID2136, AID2284, AID2285, AID2352]; format: functional
[13] = molecular target: Delta-type opioid receptor (Homo sapiens, UniProt P41143); test: SAR Analysis of Agonists of the DOR Receptor using an Image-Based Assay - Set 3. [Related pubchem assays (depositor defined):AID1777, AID1786]; format: functional
[14] = molecular target: T5, Kappa-type opioid receptor; test: SAR analysis of small molecule agonists of the kappa opioid receptor via a luminescent beta-arrestin assay - Set 3. [Related pubchem assays (depositor defined):AID1777, AID1785, AID1786, AID1966, AID2133, AID2136, AID2284, AID2500]; format: functional

T5 sequence (P41145 whole entry): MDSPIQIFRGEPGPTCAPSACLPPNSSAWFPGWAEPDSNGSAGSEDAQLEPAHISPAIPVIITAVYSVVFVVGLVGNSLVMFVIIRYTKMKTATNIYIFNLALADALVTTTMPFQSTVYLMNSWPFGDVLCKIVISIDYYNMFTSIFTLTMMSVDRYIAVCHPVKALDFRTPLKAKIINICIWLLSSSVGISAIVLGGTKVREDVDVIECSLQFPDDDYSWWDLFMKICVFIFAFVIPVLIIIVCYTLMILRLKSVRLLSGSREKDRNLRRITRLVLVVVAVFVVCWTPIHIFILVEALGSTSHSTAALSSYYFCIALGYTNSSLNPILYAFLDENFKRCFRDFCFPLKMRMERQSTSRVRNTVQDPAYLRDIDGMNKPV
Alkaline phosphatase, placental type, sequence (P05187 whole entry): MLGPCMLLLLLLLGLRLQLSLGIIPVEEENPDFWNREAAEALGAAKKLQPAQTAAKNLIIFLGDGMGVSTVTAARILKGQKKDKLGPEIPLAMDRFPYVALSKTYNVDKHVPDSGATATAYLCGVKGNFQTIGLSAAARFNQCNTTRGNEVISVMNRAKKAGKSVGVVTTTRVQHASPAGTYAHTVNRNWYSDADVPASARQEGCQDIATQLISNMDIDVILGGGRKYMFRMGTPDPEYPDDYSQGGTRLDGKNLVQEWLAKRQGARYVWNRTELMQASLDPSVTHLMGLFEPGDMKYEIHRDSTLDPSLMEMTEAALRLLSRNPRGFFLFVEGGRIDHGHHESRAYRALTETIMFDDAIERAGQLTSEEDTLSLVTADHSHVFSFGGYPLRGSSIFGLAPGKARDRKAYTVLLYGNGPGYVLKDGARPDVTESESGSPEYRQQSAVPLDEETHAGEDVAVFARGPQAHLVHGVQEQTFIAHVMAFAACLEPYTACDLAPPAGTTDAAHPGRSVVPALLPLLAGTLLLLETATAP
Mu-type opioid receptor, sequence (P35372 whole entry): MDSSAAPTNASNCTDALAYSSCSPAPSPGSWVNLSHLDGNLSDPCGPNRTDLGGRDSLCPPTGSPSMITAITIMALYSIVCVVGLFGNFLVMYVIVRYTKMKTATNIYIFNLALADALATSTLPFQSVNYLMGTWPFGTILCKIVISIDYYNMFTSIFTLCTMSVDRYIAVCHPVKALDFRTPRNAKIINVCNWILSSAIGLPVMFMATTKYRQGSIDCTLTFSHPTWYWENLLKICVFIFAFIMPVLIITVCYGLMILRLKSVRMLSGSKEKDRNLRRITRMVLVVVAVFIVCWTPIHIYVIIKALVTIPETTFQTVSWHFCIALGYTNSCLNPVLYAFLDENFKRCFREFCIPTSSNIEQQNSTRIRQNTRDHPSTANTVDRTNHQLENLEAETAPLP
Intestinal-type alkaline phosphatase (Mus musculus, UniProt P24822), sequence (P24822 whole entry): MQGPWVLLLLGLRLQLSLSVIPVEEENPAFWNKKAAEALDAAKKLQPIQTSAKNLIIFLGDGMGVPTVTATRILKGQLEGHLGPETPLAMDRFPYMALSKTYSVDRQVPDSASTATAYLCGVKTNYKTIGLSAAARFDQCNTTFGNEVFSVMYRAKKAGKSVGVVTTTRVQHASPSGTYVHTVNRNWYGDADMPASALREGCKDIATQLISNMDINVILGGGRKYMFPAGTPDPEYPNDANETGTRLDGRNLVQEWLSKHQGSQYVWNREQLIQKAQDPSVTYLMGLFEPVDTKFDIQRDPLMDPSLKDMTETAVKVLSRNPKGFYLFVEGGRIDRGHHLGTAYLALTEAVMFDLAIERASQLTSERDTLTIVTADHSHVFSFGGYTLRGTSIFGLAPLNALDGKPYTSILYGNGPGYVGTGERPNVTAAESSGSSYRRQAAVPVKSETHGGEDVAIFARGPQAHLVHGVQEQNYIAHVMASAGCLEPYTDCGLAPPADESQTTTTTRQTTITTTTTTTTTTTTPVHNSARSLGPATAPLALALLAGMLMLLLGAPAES
Delta-type opioid receptor, sequence (P41143 whole entry): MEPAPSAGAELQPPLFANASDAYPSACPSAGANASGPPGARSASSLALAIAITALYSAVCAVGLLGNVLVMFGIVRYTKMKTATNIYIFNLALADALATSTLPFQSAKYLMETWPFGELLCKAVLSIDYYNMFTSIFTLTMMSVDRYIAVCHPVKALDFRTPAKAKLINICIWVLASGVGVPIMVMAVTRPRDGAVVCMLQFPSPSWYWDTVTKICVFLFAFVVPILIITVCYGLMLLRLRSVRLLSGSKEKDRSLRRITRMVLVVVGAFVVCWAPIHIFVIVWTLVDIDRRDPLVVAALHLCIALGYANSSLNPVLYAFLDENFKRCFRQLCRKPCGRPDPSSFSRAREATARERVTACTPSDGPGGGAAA
Intestinal-type alkaline phosphatase (Homo sapiens, UniProt P09923), sequence (P09923 whole entry): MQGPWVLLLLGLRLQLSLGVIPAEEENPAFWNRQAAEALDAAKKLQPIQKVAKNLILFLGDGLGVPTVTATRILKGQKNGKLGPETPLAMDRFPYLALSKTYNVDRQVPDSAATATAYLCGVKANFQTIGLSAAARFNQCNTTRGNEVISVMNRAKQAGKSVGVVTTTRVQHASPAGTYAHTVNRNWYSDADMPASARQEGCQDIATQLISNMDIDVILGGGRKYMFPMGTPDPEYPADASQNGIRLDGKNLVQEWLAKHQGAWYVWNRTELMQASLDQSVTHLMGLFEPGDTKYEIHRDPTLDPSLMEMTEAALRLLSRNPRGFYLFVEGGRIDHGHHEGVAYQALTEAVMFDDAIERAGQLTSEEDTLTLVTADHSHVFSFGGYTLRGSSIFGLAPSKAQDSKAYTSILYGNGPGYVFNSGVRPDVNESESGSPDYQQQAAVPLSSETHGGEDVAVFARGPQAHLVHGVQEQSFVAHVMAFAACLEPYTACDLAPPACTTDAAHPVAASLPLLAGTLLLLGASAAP

Row | EC50 [11] | EC50 [12] | EC50 [13] | EC50 [14] | Structure (SMILES) | EC50 [1] | IC50 [2] | IC50 [3] | EC50 [4] | EC50 [5] | IC50 [6] | IC50 [7] | EC50 [8] | EC50 [9] | IC50 [10]
1 |  |  |  |  | CCn1c(CSc2nc3ccccc3s2)nnc1SCC(=O)c1ccc(O)c(O)c1 | > 160 µM (inactive) | 68.8 µM (active) | > 100 µM (inactive) | > 38 µM (not active) | > 100 µM (inactive) | 3.87 µM (inactive) | > 100 µM (inactive) | 1.84 µM (active) | 64.2 µM (active) | 179 µM (active)
2 | 0.956 µM (active) | > 32 µM (inactive) | > 64 µM (inactive) | 1.24 µM (active) | O=[N+]([O-])c1ccc(CSc2nnc(-c3ccccn3)n2Cc2cccs2)cc1 |  |  |  |  |  |  |  |  |  | 
